# Laboratory results published in ChEMBL document CHEMBL2074387, “Expression of the bile salt export pump is maintained after chronic cholestasis in the rat” (Gastroenterology, 2000).
# How the values were obtained:
# Bile salt export pump = biological target: T1, Bile salt export pump (Rattus norvegicus, UniProt O70127); assay: TP_TRANSPORTER: Western in vivo SD rat, liver; type: functional, organism-based, Sprague-Dawley
# T1 sequence (O70127 whole entry): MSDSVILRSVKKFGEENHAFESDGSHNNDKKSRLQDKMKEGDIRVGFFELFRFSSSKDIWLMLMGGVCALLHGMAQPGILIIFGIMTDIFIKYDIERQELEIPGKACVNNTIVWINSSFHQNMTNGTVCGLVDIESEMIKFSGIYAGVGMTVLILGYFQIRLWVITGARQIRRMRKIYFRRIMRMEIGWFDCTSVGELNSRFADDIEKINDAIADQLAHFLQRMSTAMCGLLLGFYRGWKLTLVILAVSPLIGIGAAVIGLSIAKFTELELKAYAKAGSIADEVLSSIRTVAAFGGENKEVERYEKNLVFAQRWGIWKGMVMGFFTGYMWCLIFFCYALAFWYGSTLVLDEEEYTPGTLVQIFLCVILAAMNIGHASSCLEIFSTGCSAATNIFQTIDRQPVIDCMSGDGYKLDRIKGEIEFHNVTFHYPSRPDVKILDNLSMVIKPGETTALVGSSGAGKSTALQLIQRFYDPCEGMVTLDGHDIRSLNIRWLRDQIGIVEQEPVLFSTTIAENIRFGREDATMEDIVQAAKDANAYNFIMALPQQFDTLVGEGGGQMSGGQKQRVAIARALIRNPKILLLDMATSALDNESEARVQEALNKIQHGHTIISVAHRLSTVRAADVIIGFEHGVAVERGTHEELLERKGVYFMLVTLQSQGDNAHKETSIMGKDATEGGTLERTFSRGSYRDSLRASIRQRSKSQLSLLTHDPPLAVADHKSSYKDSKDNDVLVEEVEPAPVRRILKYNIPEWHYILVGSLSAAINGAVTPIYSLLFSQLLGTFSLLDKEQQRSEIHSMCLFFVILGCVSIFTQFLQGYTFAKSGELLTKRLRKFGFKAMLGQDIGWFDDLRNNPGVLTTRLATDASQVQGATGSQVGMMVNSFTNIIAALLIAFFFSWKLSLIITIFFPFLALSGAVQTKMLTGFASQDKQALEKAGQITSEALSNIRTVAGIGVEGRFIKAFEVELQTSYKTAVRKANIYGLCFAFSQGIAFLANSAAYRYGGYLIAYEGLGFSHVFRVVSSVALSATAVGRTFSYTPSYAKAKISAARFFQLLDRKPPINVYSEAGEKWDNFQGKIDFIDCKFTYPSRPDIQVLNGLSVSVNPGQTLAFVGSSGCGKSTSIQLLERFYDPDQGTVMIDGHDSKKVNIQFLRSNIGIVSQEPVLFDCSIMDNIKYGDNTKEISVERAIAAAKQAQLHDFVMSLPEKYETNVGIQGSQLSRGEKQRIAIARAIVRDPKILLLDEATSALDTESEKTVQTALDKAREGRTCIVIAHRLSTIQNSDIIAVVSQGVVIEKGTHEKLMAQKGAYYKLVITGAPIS
# [1] = biological target: T2, Hepatic sodium/bile acid cotransporter (Rattus norvegicus, UniProt P26435); assay: TP_TRANSPORTER: Northern blot in vivo SD rat, liver; type: functional, organism-based, Sprague-Dawley
# T2 sequence (P26435 whole entry): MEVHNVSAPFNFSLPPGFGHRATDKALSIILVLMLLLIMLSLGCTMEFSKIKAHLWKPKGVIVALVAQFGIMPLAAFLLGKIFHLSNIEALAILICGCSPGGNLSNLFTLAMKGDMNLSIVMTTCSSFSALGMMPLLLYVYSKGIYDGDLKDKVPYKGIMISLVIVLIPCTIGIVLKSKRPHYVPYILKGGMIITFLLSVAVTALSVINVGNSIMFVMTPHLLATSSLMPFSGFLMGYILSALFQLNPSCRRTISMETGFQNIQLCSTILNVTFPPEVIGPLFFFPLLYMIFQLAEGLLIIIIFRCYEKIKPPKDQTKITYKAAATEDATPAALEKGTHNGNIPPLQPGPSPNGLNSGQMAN
smiles,measurement,setting,value
C#C[C@]1(O)CC[C@H]2[C@@H]3CCc4cc(O)ccc4[C@H]3CC[C@@]21C [ETHINYL ESTRADIOL],Activity,Bile salt export pump,inducer [Decrease]
same,Activity,[1],inducer [Decrease]
